Experimental data taken from US20230416299A1, “COMPOUND AND METHOD FOR THE TREATMENT AND DIAGNOSIS OF NEURODEGENERATIVE CONDITIONS” (Swansea University, priority 2013, published 2023).

Assays:
[1] = tested on: mouse E11.5 brain primary cultures; assay: Mouse E11.5 brain primary cultures (Islet1+, active caspase 3+, BrdU, Nkx6.1 counts); type: cell-based; conditions: for Number of Islet1+ cells: 3 DIV; for Number of active caspase-3+ cells: 10 μM 3β,7α-diHCA, 3βH,7O-CA, 25-HC, low concentrations of 3β,7β-diHCA, 3β-HCA
Procedure: Primary Brain Cultures. Brains from E11.5 mice were manually dissected, plated on poly-D-lysine (150,000 cells/cm2) and grown in serum-free N2 media consisting of 1:1 mixture of F12 and DMEM with 10 ng/mL insulin, 100 μg/mL apo-transferrin, 100 μM putrescine, 20 nM progesterone, 30 nM selenium, 6 mg/mL glucose, and 1 mg/mL BSA. Cells were treated for 3 days in vitro (DIV) with the compounds of interest, fixed with 4% PFA and processed for staining using appropriate antibodies.
For BrdU analysis, cells were treated with BrdU one hour after plating and media was replaced with fresh medium after 16 h. After a further 2 days in culture, cells were treated for 30 min with 2N HCl and then immunocytochemistry was performed to evaluate the number of double BrdU+;Islet1+ cells (a measure of motor neuron neurogenesis). Hoechst staining was performed by permeabilizing cells with a 0.3% Triton-X 100/PBS solution for 5 min followed by incubation with Hoechst 33258 (Sigma) for 10 min.
Antibodies and Detection Procedures. Cells were fixed in 4% PFA, washed in PBS and blocked in 5% normal goat serum/PBS for 1 h at room temperature. Primary antibodies were diluted in PBS (pH 7.4), 0.3% Triton X-100, 1% BSA and incubations were carried out overnight at +4° C. or at room temperature for 2 h. The antibodies used were anti-: BrdU (1:400; Abeam), Islet-1 (1:100; Developmental Studies Hybridoma Bank), cleaved caspase-3 (Asp175) (1:100; Cell Signaling Technology), tyrosine hydroxylase (TH;1:1000; Pel-Freeze) GABA (1:1,000; Sigma), Brn3a (1:250; Millipore), Nkx6.1 (1:200; Novus Biologicals), choline acetyltransferase (ChAT; 1:500; Millipore) and appropriate secondary antibodies (Jackson ImmunoResearch or Alexa). Cells positive for the corresponding marker were counted directly at the microscope at a magnification of 20 x. Cells were counted in every well, in eight consecutive fields (going from one side of the well to the other, passing through the center), in three different wells per experiment and in three different experiments per condition. Random pictures of the wells were taken for every condition to document the result, and representative pictures were subsequently selected to represent the quantitative data. Photos were acquired with a Zeiss Axioplan microscope and a Hamamatsu camera C4742-95 using the Openlab software.

[2] = molecular target: T1, Lxrβ (Homo sapiens, UniProt P55055); assay: Lxr-responsive luciferase reporter assay (Lxre + Lxrβ) in SN4741 neural cells; type: cell-based, mouse; conditions: for Lxrβ activation, luciferase activity: SN4741 cells, 10 μM, 24 h; for Lxrβ activational capacity in combination with 22R-HC: acid 10 μM + 22R-HC 10 μM
T1 construct: expressed in transfected cells; host or cells: SN4741 mouse neuronal cell line
T1 sequence (P55055 1-460): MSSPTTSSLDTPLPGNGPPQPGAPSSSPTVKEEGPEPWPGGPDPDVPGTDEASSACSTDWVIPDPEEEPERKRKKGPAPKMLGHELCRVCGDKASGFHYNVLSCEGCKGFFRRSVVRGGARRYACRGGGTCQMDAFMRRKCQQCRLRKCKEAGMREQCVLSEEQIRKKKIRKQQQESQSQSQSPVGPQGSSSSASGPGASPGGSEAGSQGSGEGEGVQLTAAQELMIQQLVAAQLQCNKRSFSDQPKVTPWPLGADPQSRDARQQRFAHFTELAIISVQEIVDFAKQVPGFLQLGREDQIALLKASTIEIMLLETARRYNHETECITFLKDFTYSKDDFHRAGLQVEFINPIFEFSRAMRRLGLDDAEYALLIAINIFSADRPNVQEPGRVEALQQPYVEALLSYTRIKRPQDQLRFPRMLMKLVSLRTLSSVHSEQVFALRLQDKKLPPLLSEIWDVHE
Source text: (§1) Luciferase Reporter Assay.

[3] = molecular target: T2, Lxrα (Homo sapiens, UniProt Q13133); assay: Lxr-responsive luciferase reporter assay (Lxre + Lxrα) in SN4741 neural cells; type: cell-based, mouse; conditions: 10 μM, 24 h
T2 construct: expressed in transfected cells; host or cells: SN4741 mouse neuronal cell line
T2 sequence (Q13133 1-447): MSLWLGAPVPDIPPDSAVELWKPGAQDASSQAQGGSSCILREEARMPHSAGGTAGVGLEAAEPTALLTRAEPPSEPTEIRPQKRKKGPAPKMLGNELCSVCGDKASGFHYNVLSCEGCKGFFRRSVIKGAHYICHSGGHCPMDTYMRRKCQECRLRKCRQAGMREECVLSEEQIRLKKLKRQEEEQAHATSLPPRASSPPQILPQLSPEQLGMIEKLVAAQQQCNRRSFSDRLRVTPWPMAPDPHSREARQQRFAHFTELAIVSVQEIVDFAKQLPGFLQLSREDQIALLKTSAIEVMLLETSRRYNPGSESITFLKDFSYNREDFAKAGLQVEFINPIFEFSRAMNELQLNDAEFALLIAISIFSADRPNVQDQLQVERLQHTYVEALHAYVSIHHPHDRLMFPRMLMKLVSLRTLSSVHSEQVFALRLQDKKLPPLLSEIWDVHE
Source text: as §1

| Structure (SMILES) | Number of Nkx6.1+ progenitor cells [1] | Concentration at which toxicity is initiated (active caspase-3+ cells) ([1]; mouse, E11.5 mouse brain primary cultures, 3 days) | Number of Islet1+ cells ([1]; wild type cultures) | Number of active caspase-3+ cells ([1]; wt cultures) | Lxrβ activation, luciferase activity [2] | Lxrβ activational capacity in combination with 22R-HC [2] | Lxrα activation, luciferase activity [3] | Number of other midbrain neurons (TH+ dopamine, GABAergic, red nucleus) [1] | Reduction of neuronal cell death (activated caspase 3) induced by 2 μM 3β,7β-diHCA or 3β-HCA ([1]; 10 μM) | Rescue of loss of Islet1+ cells induced by 2 μM 3β,7β-diHCA or 3β-HCA ([1]; 10 μM) | Effect on active caspase-3+ cells with GGPP ([1]; GGPP 10 μM, 3β,7β-diHCA, 3β-HCA at 2 μM) | Concentration with significant difference (p<0.05) from vehicle in number of Islet1+ cells ([1]; wild type cultures, dose response) | Effect on Islet1+ cells with Lxr antagonist GGPP ([1]; wt cultures, GGPP 10 μM) |
| --- | --- | --- | --- | --- | --- | --- | --- | --- | --- | --- | --- | --- | --- |
| CC(CCC[C@@H](C)[C@H]1CC[C@H]2[C@@H]3CC=C4C[C@@H](O)CC[C@]4(C)[C@H]3CC[C@]12C)C(=O)O (stereo partly drawn) [3β-HCA, 3β-hydroxycholest-5-en-26-oic acid] | did not affect the number of Nkx6.1+ progenitor cells | 1000 nM | caused the loss of Islet1+ cells in the cultures | increased the number of active caspase-3+ cells | activates Lxr | No additive effect was observed | activates Lxr | – | – | – | – | – | – |
| CC(CCC[C@@H](C)[C@H]1CC[C@H]2[C@@H]3[C@H](O)C=C4C[C@@H](O)CC[C@]4(C)[C@H]3CC[C@]12C)C(=O)O (stereo partly drawn) [3β,7α-diHCA, 3β,7α-dihydroxycholest-5-en-26-oic acid] | did not affect the number of Nkx6.1+ progenitor cells | – | increased the number of Islet1+ oculomotor cells in the cultures | decreased the number of active caspase-3+ cells | have the ability to activate both Lxrs | No additive effect was observed | have the ability to activate both Lxrs | did not affect the number of other midbrain neurons | reduced the neuronal cell death | reversed the loss of Islet 1+ cells | completely blocked by co-incubation with the Lxr inhibitor GGPP | ≥ 5 µM | blocked by the Lxr antagonist GGPP |
